Results from PubChem BioAssay AID1996.
≈ marks a conversion by molar mass, not a printed value.

Settings: buffer; pH 7.4; 200.0 µM

| solubility kinetic [mg/mL] | Structure (SMILES) |
| --- | --- |
| 0.0023 (≈ 6.76 µM) | COC(=O)c1sccc1NC(=O)c1ccccc1Br |
| < 0.0003 | COc1ccc(Cn2c(=S)[nH]c3ccccc3c2=O)cc1 |
| 0.0471 (≈ 134 µM) | CC(C)(C)N(CC#CCC(O)(c1ccccc1)c1ccccc1)CCO |
| > 0.0497 | COc1cc(C(=O)NCCOc2ccccc2)cc(OC)c1OC |
| 0.053 (≈ 141 µM) | Cc1cccc(N2C(=O)C(O)=C(C(=O)c3cccs3)C2c2ccccc2)n1 (stereo not given) |
| > 0.0466 | CCOC(=O)N1CCC(NC(=O)c2ccc(Cl)cc2)CC1 |
| > 0.049 | CCOc1ccc(S(=O)(=O)N(CC)CC(=O)NC2CC2)cc1 |
| 0.0043 (≈ 14.5 µM) | O=C(COc1cccnc1[N+](=O)[O-])c1c[nH]c2ccccc12 |
| > 0.0464 | OCc1ccccc1OCCCOc1cccc2cccnc12 |
| 0.0363 (≈ 133 µM) | CCCCOc1ccc(Cc2cnc(N)nc2N)cc1 |
| > 0.0437 | Cc1ccc(S(=O)(=O)NC(=S)c2ccccc2)cc1 |
| 0.0022 (≈ 6.33 µM) | CCn1c(SCc2ccccc2)nc2cc(S(N)(=O)=O)ccc21 |
| 0.0024 (≈ 7.35 µM) | Cc1ccc(NC(=O)C(C)NC(=O)OCc2ccccc2)cc1C (stereo not given) |
| > 0.0521 | O=C(O)c1cc(O)ccc1NC(=O)C(c1ccccc1)c1ccccc1 |
| 0.0029 (≈ 8.34 µM) | CN(Cc1ccccc1)C(=O)COC(=O)COc1ccc(Cl)cc1 |
| > 0.0525 | O=C(O)COc1ccc(Br)cc1/C=N\Nc1ccccn1 |
| 0.0023 (≈ 4.76 µM) | CCOc1ccc(S(=O)(=O)N2CCN(C(=O)COc3ccc(Br)cc3)CC2)cc1 |
| > 0.0515 | Cc1cc(NC(=O)COC(=O)C2CC(=O)N(c3ccccc3)C2)no1 (stereo not given) |
| > 0.0647 | CC(C(=O)OCC(=O)Nc1ccc(S(N)(=O)=O)cc1)N1C(=O)c2ccccc2C1=O (stereo not given) |
| > 0.0492 | CC1CC2c3cccc(C(=O)O)c3C(=O)N2c2ccc(Cl)cc21 (stereo not given) |
| > 0.0434 | CCN1CCCC1CNC(=O)C(=O)NCc1ccccc1 (stereo not given) |
| > 0.0499 | O=C(NCCCCNC(=O)c1ccccc1F)c1ccccc1F |
| 0.0299 (≈ 93 µM) | CCCCOc1ccc(C(=O)OCC(=O)N2CCOCC2)cc1 |
| 0.0092 (≈ 28.8 µM) | O=C(COc1ccc(Nc2ccccc2)cc1)Nc1ccncc1 |
| > 0.0508 | O=C(N/C(=C/c1ccc(F)cc1)C(=O)N1CCCC1)c1ccccc1 |
| 0.0407 (≈ 136 µM) | CN(c1cccc2cccnc12)S(=O)(=O)c1ccccc1 |
| > 0.0477 | Cl.O=S(=O)(CCc1ccncc1)c1ccc(Cl)cc1 |
| > 0.0359 | C/C(=N\NC(=O)c1cccnc1)c1ccccc1 |
| > 0.0489 | O=C(CNS(=O)(=O)c1ccccc1)Nc1ccc(F)cc1F |
| > 0.0506 | C[C@H](NC(=O)c1ccccc1)C(=O)N1CCN(c2ccccc2)CC1 |

Continued, molecule first:

| Structure (SMILES) | solubility kinetic [mg/mL] |
| --- | --- |
| CCOc1ccccc1Nc1cc(C)nc2ccc(C)cc12 | > 0.0439 |
| CC(=O)Cc1nsc(Nc2cccc(C)c2)n1 | 0.0305 (≈ 123 µM) |
| O=C1C=C(N2CCCCCC2)C2(CCCCC2)O1 | 0.0371 (≈ 149 µM) |
| CNC(=O)c1cc(S(=O)(=O)Nc2ccc3c(c2)OCCO3)ccc1C | > 0.0544 |
| Cc1ccc(S(=O)(=O)Nc2ncccn2)cc1 | > 0.0374 |
| CCCSC1=C(C#N)C2(CCCCC2)C(C#N)=C(N)N1 | > 0.0433 |
| CCOC(=O)C1CCN(C(=O)C2COc3ccccc3O2)CC1 (stereo not given) | 0.0323 (≈ 101 µM) |
| O=C(COCc1cc(-c2ccco2)on1)NC1CCCCC1 | 0.0424 (≈ 139 µM) |
| CC1(C)CC(=O)N(c2cccc(C(F)(F)F)c2)C(=O)C1 | 0.0081 (≈ 28.4 µM) |
| NS(=O)(=O)c1cc2c(cc1C(F)(F)F)NC(Cc1ccccc1)NS2(=O)=O (stereo not given) | > 0.0632 |
| C=CCSc1nc2sc3c(c2c(=O)[nH]1)CC(C)(CC)OC3 (stereo not given) | 0.0005 (≈ 1.55 µM) |
| Cc1cccc(OC(C)C(=O)Nc2nc(-c3ccncc3)cs2)c1 (stereo not given) | 0.0034 (≈ 10 µM) |
| CCC(OC(=O)c1nsc(Cl)c1Cl)C(=O)NC(C)(C)CC (stereo not given) | > 0.053 |
| O=C(NC1CC1)C1CC(=O)N(c2cccc(Cl)c2Cl)C1 (stereo not given) | > 0.047 |
| CC(=O)c1ccc(N(CC(=O)NC2CCS(=O)(=O)C2)S(=O)(=O)c2ccc(C)cc2)cc1 (stereo not given) | 0.0104 (≈ 22.4 µM) |
| Cc1ccccc1C1NC(=S)NC2=C1C(=O)CC(C)(C)C2 (stereo not given) | 0.0393 (≈ 131 µM) |
| CCOc1ccc(N2C(=O)CC(=O)NC2=O)cc1 | > 0.0372 |
| O=[N+]([O-])c1ccc(NCc2ccc3c(c2)OCO3)cc1 | < 0.0003 |
| CN1CC(C(=O)c2ccc(F)cc2)C(c2ccc(F)cc2)C1 (stereo not given) | > 0.0452 |
| COc1cccc(C(=O)NCc2ccc3c(c2)OCO3)c1OC | > 0.0473 |
| COc1ccc(Nc2ncnc3ccc([N+](=O)[O-])cc23)c(OC)c1 | 0.0105 (≈ 32.2 µM) |
| O=S(=O)(Nc1ccc(F)cc1)N1CCOCC1 | > 0.039 |
| CCOc1ccc2[nH]c(C)c(CN3CCCCCC3)c(=O)c2c1 | > 0.0472 |
| CCOC(=O)c1sc(NC(=O)CN2CC(C)OC(C)C2)nc1C (stereo not given) | 0.049 (≈ 144 µM) |
| Fc1cccc(Nc2nc(Cl)nc(Cl)n2)c1 | 0.0362 (≈ 140 µM) |
| CCN(CC)C(=N)N1c2ccccc2CCC1C.Cl (stereo not given) | 0.0408 |
| O=C(c1ccc([N+](=O)[O-])s1)N1CCN(c2ccccn2)CC1 | 0.0427 (≈ 134 µM) |
| CCCCOC(=O)Nc1nnc(C(C)C)s1 | > 0.0365 |

| Structure (SMILES) | solubility kinetic [mg/mL] |
| --- | --- |
| CC1CC(=O)Nc2ccccc2N1S(=O)(=O)c1ccc(F)cc1F (stereo not given) | 0.0156 (≈ 44.3 µM) |
| N#CC(C(=O)c1ccccc1)=C1SCCS1 | 0.0018 (≈ 7.28 µM) |
| Cn1c(N)c(S(=O)(=O)N2CCCC2)c(=O)n(C)c1=O | > 0.0432 |
| O=C(/C=C/c1ccc(F)cc1)NCCCn1ccnc1 | > 0.041 |
| CC(C)NC(=O)COCc1cc(-c2ccc3c(c2)OCO3)on1 | > 0.0477 |
| COc1ccc2oc(C(=O)OC(C)C(=O)N3C(C)CCCC3C)c(C)c2c1 (stereo not given) | 0.0084 (≈ 22.5 µM) |
| CCOC(=O)c1ccc(NC(=S)NCCCn2ccnc2)cc1 | > 0.0499 |
| Cc1ccc(NC(=O)C2CCCN2C(=O)c2cccs2)c(C)c1 (stereo not given) | 0.024 (≈ 73.1 µM) |
| Cc1ccc(NC(=O)Nc2ccno2)cc1 | > 0.0326 |
| CCc1nc(NC(=O)c2sc(C)nc2C)sc1C(=O)OC | > 0.0488 |
| CC(=O)Nc1ccc(C(=O)CN2C(=O)CSC2=O)cc1 | > 0.0438 |
| CCOc1ccc(Cl)cc1/C=C1/C(=O)ON=C1C | 0.0293 (≈ 110 µM) |
| COc1ccc(NC(=O)CC2(CC(=O)O)CCCC2)cc1 | 0.0436 (≈ 150 µM) |
| Cc1ccc(C#CC[N+]2(C)CCCCC2)cc1.[Br-] | > 0.0462 |
| O=C(c1cccc(S(=O)(=O)N2CCCc3ccccc32)c1)N1CCN(c2ccccc2)CC1 | 0.0036 (≈ 7.8 µM) |
| CC(C)c1ccc(NC(=O)Nc2cnccn2)cc1 | 0.0039 (≈ 15.2 µM) |
| CCCCNc1nc2c(c(=O)n(Cc3ccccc3)c(=O)n2C)n1C | 0.0041 (≈ 12 µM) |
| CC(C)CC(=O)N1CCN(C(=O)c2ccc(F)cc2)CC1 | > 0.0439 |
| Cl.Cn1sccc1=O | 0.0184 |
| [O-][n+]1c2ccccc2[n+]([O-])c2cc(O)ccc21 | > 0.0342 |
| CN(C)CCCN1C(=O)c2cc3ccccc3cc2C1=O | 0.0278 (≈ 98.5 µM) |
| Cc1cc(NC(=O)COC(=O)C2CCC(=O)N2)c([N+](=O)[O-])cc1C (stereo not given) | > 0.0503 |
| O=C(CNS(=O)(=O)c1cccs1)N1CCCCC1 | > 0.0433 |
| O=C(Nc1ccc(Cl)c(S(=O)(=O)N2CCCC2)c1)c1cc(=O)[nH]c2ccccc12 | 0.0145 (≈ 33.6 µM) |
| COCc1cc(C)nc(SCc2ccc(F)cc2)c1C#N | 0.0011 (≈ 3.64 µM) |
| Nc1nc(NCc2ccco2)nc(Nc2ccccc2)c1[N+](=O)[O-] | 0.0004 (≈ 1.23 µM) |
| Cc1ccc(S(=O)(=O)NCCSc2ncccn2)cc1 | > 0.0464 |
